Data published in the NIST ThermoML archive (doi:10.1016/j.jct.2011.10.012).
Values joined by “and” are separate entries in the source; they are usually repeats but may differ in a detail not shown here. Equal entries are not always repeated. Numbers after ± are expanded uncertainties.

Details: for viscosity: 101.33 kPa, Cone and plate viscometry; for viscosity / mass density: Liquid; for mass density: Vibrating tube method; for surface tension liquid-gas: Wilhelmy plate

CCCCCCCCCCCCCC[P+](CCCCCC)(CCCCCC)CCCCCC.FC(F)(F)C(F)(F)[P-](F)(F)(F)(C(F)(F)C(F)(F)F)C(F)(F)C(F)(F)F
viscosity (283.09 K): 975.8 ± 67 mPa·s and 976.8 ± 67 mPa·s | viscosity (283.1 K): 991.3 ± 68 mPa·s and 992.8 ± 69 mPa·s and 989.8 ± 68 mPa·s | viscosity (288.13 K): 697.9 ± 45 mPa·s [middle of 4 runs] | viscosity (293.07 K): 504.6 ± 30 mPa·s [middle of 5 runs] | mass density (293.15 K, 100 kPa): 1185.6 ± 2 kg/m3 | mass density (293.15 K, 2000 kPa): 1187 ± 2 kg/m3 | mass density (293.15 K, 3000 kPa): 1187.7 ± 2 kg/m3 | mass density (293.15 K, 5000 kPa): 1189.2 ± 2 kg/m3 | mass density (293.15 K, 10000 kPa): 1192.6 ± 2 kg/m3 | mass density (293.15 K, 15000 kPa): 1196.1 ± 2 kg/m3 | mass density (293.15 K, 20000 kPa): 1199.4 ± 2 kg/m3 | mass density (293.15 K, 25000 kPa): 1202.6 ± 2 kg/m3 | mass density (298.15 K, 100 kPa): 1181.8 ± 2 kg/m3 | viscosity (298.15 K): 335.9 ± 19 mPa·s and 336.5 ± 19 mPa·s | mass density (298.15 K, 2000 kPa): 1183.2 ± 2 kg/m3 | mass density (298.15 K, 3000 kPa): 1183.9 ± 2 kg/m3 | mass density (298.15 K, 5000 kPa): 1185.4 ± 2 kg/m3 | mass density (298.15 K, 10000 kPa): 1189 ± 2 kg/m3 | mass density (298.15 K, 15000 kPa): 1192.5 ± 2 kg/m3 | mass density (298.15 K, 20000 kPa): 1195.8 ± 2 kg/m3 | mass density (298.15 K, 25000 kPa): 1199.1 ± 2 kg/m3 | surface tension liquid-gas (298.51 K): 28.99 ± 0.41 mN/m | mass density (303.15 K, 100 kPa): 1177.9 ± 2 kg/m3 | viscosity (303.15 K): 256.1 ± 13 mPa·s [middle of 5 runs] | mass density (303.15 K, 2000 kPa): 1179.4 ± 2 kg/m3 | mass density (303.15 K, 3000 kPa): 1180.1 ± 2 kg/m3 | mass density (303.15 K, 5000 kPa): 1181.6 ± 2 kg/m3 | mass density (303.15 K, 10000 kPa): 1185.3 ± 2 kg/m3 | mass density (303.15 K, 15000 kPa): 1188.9 ± 2 kg/m3 | mass density (303.15 K, 20000 kPa): 1192.3 ± 2 kg/m3 | mass density (303.15 K, 25000 kPa): 1195.6 ± 2 kg/m3 | surface tension liquid-gas (305.16 K): 28.68 ± 0.41 mN/m | mass density (308.15 K, 100 kPa): 1174 ± 2 kg/m3 | viscosity (308.15 K): 196 ± 9.5 mPa·s [middle of 6 runs] | mass density (308.15 K, 2000 kPa): 1175.5 ± 2 kg/m3 | mass density (308.15 K, 3000 kPa): 1176.3 ± 2 kg/m3 | mass density (308.15 K, 5000 kPa): 1177.8 ± 2 kg/m3 | mass density (308.15 K, 10000 kPa): 1181.5 ± 2 kg/m3 | mass density (308.15 K, 15000 kPa): 1185.2 ± 2 kg/m3 | mass density (308.15 K, 20000 kPa): 1188.7 ± 2 kg/m3 | mass density (308.15 K, 25000 kPa): 1192.1 ± 2 kg/m3 | surface tension liquid-gas (309.15 K): 28.44 ± 0.41 mN/m | mass density (313.15 K, 100 kPa): 1170.1 ± 2 kg/m3 | viscosity (313.15 K): 151.2 ± 7 mPa·s [middle of 8 runs] | mass density (313.15 K, 2000 kPa): 1171.6 ± 2 kg/m3 | mass density (313.15 K, 3000 kPa): 1172.4 ± 2 kg/m3 | mass density (313.15 K, 5000 kPa): 1174 ± 2 kg/m3 | mass density (313.15 K, 10000 kPa): 1177.8 ± 2 kg/m3 | mass density (313.15 K, 15000 kPa): 1181.5 ± 2 kg/m3 | mass density (313.15 K, 20000 kPa): 1185.1 ± 2 kg/m3 | mass density (313.15 K, 25000 kPa): 1188.6 ± 2 kg/m3 | surface tension liquid-gas (313.65 K): 28.14 ± 0.41 mN/m | mass density (318.15 K, 100 kPa): 1166.2 ± 2 kg/m3 | viscosity (318.15 K): 118.8 ± 5.2 mPa·s [middle of 8 runs] | mass density (318.15 K, 2000 kPa): 1167.7 ± 2 kg/m3 | mass density (318.15 K, 3000 kPa): 1168.5 ± 2 kg/m3 | mass density (318.15 K, 5000 kPa): 1170.2 ± 2 kg/m3 | mass density (318.15 K, 10000 kPa): 1174.1 ± 2 kg/m3 | mass density (318.15 K, 15000 kPa): 1177.8 ± 2 kg/m3 | mass density (318.15 K, 20000 kPa): 1181.5 ± 2 kg/m3 | mass density (318.15 K, 25000 kPa): 1185 ± 2 kg/m3 | surface tension liquid-gas (319.7 K): 27.8 ± 0.41 mN/m | mass density (323.15 K, 100 kPa): 1162.3 ± 2 kg/m3 | viscosity (323.15 K): 96.4 ± 4.1 mPa·s [middle of 15 runs] | mass density (323.15 K, 2000 kPa): 1163.8 ± 2 kg/m3 | mass density (323.15 K, 3000 kPa): 1164.6 ± 2 kg/m3 | mass density (323.15 K, 5000 kPa): 1166.3 ± 2 kg/m3 | mass density (323.15 K, 10000 kPa): 1170.3 ± 2 kg/m3 | mass density (323.15 K, 15000 kPa): 1174.1 ± 2 kg/m3 | mass density (323.15 K, 20000 kPa): 1177.8 ± 2 kg/m3 | mass density (323.15 K, 25000 kPa): 1181.4 ± 2 kg/m3 | surface tension liquid-gas (325.35 K): 27.58 ± 0.41 mN/m | mass density (328.15 K, 100 kPa): 1158.3 ± 2 kg/m3 | viscosity (328.15 K): 79.6 ± 3.3 mPa·s [middle of 11 runs] | mass density (328.15 K, 2000 kPa): 1159.9 ± 2 kg/m3 | mass density (328.15 K, 3000 kPa): 1160.7 ± 2 kg/m3 | mass density (328.15 K, 5000 kPa): 1162.4 ± 2 kg/m3 | mass density (328.15 K, 10000 kPa): 1166.5 ± 2 kg/m3 | mass density (328.15 K, 15000 kPa): 1170.4 ± 2 kg/m3 | mass density (328.15 K, 20000 kPa): 1174.2 ± 2 kg/m3 | mass density (328.15 K, 25000 kPa): 1177.8 ± 2 kg/m3 | surface tension liquid-gas (330.62 K): 27.28 ± 0.41 mN/m | mass density (333.15 K, 100 kPa): 1154.4 ± 2 kg/m3 | viscosity (333.15 K): 65 ± 2.7 mPa·s [middle of 13 runs] | mass density (333.15 K, 2000 kPa): 1155.9 ± 2 kg/m3 | mass density (333.15 K, 3000 kPa): 1156.8 ± 2 kg/m3 | mass density (333.15 K, 5000 kPa): 1158.5 ± 2 kg/m3 | mass density (333.15 K, 10000 kPa): 1162.7 ± 2 kg/m3 | mass density (333.15 K, 15000 kPa): 1166.7 ± 2 kg/m3 | mass density (333.15 K, 20000 kPa): 1170.5 ± 2 kg/m3 | mass density (333.15 K, 25000 kPa): 1174.2 ± 2 kg/m3 | surface tension liquid-gas (337.9 K): 26.85 ± 0.41 mN/m | mass density (338.15 K, 100 kPa): 1150.4 ± 2 kg/m3 | viscosity (338.15 K): 54 ± 2.2 mPa·s [middle of 13 runs] | mass density (338.15 K, 2000 kPa): 1152 ± 2 kg/m3 | mass density (338.15 K, 3000 kPa): 1152.9 ± 2 kg/m3 | mass density (338.15 K, 5000 kPa): 1154.6 ± 2 kg/m3 | mass density (338.15 K, 10000 kPa): 1158.9 ± 2 kg/m3 | mass density (338.15 K, 15000 kPa): 1162.9 ± 2 kg/m3 | mass density (338.15 K, 20000 kPa): 1166.8 ± 2 kg/m3 | mass density (338.15 K, 25000 kPa): 1170.5 ± 2 kg/m3 | mass density (343.15 K, 100 kPa): 1146.4 ± 2 kg/m3 | viscosity (343.15 K): 44.3 ± 1.8 mPa·s [middle of 9 runs] | mass density (343.15 K, 2000 kPa): 1148 ± 2 kg/m3 | mass density (343.15 K, 3000 kPa): 1148.9 ± 2 kg/m3 | mass density (343.15 K, 5000 kPa): 1150.7 ± 2 kg/m3 | mass density (343.15 K, 10000 kPa): 1155 ± 2 kg/m3 | mass density (343.15 K, 15000 kPa): 1159.1 ± 2 kg/m3 | mass density (343.15 K, 20000 kPa): 1163.1 ± 2 kg/m3 | mass density (343.15 K, 25000 kPa): 1166.9 ± 2 kg/m3 | surface tension liquid-gas (343.29 K): 26.57 ± 0.41 mN/m | viscosity (348.15 K): 37.5 ± 1.5 mPa·s [middle of 9 runs] | viscosity (353.15 K): 32.1 ± 1.3 mPa·s [middle of 8 runs] | viscosity (358.15 K): 27.9 ± 1.1 mPa·s and 28 ± 1.1 mPa·s and 28.1 ± 1.1 mPa·s | viscosity (358.17 K): 28.2 ± 1.1 mPa·s and 28.1 ± 1.1 mPa·s and 28 ± 1.1 mPa·s | viscosity (363.17 K): 24.5 ± 1 mPa·s and 24.4 ± 1 mPa·s | viscosity (363.18 K): 24.6 ± 1 mPa·s and 24.5 ± 1 mPa·s | viscosity (363.2 K): 24.6 ± 1 mPa·s and 24.5 ± 1 mPa·s
